{"source": "paper PMC9127750", "about": "“Structure-based design of CDC42 effector interaction inhibitors for the treatment of cancer” (Cell reports, 2022)", "system": "WM3248 melanoma cells, 486 antibodies", "test": "Reverse phase protein arrays (RPPA)", "type": "cell-based, Human", "description": "Pellets were snap frozen in liquid nitrogen and shipped to MD Anderson Cancer Center core RPPA facility for RPPA analysis (Table S5). Three biological replicates for each sample were generated.\nNomenclatures on the RPPA heatmaps: name_of_antibody.species_of_antibody.status_of_antibody. V - antibody validated; C - validation of antibody in progress; Q - antibody nonspecific; E – under evaluation; antibodies raised in M - mouse, G - goat, R - rabbit, or T - rat.", "note": "Where “and” joins values, the source holds several entries; their conditions need not be identical. Equal entries are not always repeated.", "data": [{"compound": "CN(C)c1cccc(Nc2cc(-c3ccccc3)nc(C3CCNCC3)n2)c1", "note": "[ARN22089, N1,N1-dimethyl-N3-(6-phenyl-2-(piperidin-4-yl)pyrimidin-4-yl)benzene-1,3-diamine]", "values": [{"measurement": "HSP27_pS82.R.V Norm_5 Average", "setting": "level 5 vs 0", "result": 1.025}, {"measurement": "HSP60.R.V Norm_5 Average", "setting": "level 5 vs 0", "result": 1.006}, {"measurement": "HSP70.R.C Norm_5 Average", "setting": "level 5 vs 0", "result": 1.035}, {"measurement": "Hexokinase.I.R.C Norm_5 Average", "setting": "level 5 vs 0", "result": 1.032}, {"measurement": "Hexokinase.II.R.V Norm_5 Average", "setting": "level 5 vs 0", "result": 1.130}, {"measurement": "Hif.1αR.C Norm_5 Average", "setting": "level 5 vs 0", "result": 1.202}, {"measurement": "Histone.H3.R.V Norm_5 Average", "setting": "level 5 vs 0", "result": 1.065}, {"measurement": "Histone.H3_pS10.R.V Norm_5 Average", "setting": "level 5 vs 0", "result": 0.786}, {"measurement": "IDO.R.C Norm_5 Average", "setting": "level 5 vs 0", "result": 1.015}, {"measurement": "IGF1R_pY1135_Y1136.R.V Norm_5 Average", "setting": "level 5 vs 0", "result": 1.003}, {"measurement": "IGFBP2.R.V Norm_5 Average", "setting": "level 5 vs 0", "result": 1.029}, {"measurement": "IGFBP3.M.V Norm_5 Average", "setting": "level 5 vs 0", "result": 0.953}, {"measurement": "IGFRb.R.C Norm_5 Average", "setting": "level 5 vs 0", "result": 1.085}, {"measurement": "IL.6.R.C Norm_5 Average", "setting": "level 5 vs 0", "result": 1.015}, {"measurement": "INPP4b.R.C Norm_5 Average", "setting": "level 5 vs 0", "result": 1.023}, {"measurement": "IR.b.R.C Norm_5 Average", "setting": "level 5 vs 0", "result": 1.051}, {"measurement": "IRF.1.R.V Norm_5 Average", "setting": "level 5 vs 0", "result": 0.995}, {"measurement": "IRF.3.R.V Norm_5 Average", "setting": "level 5 vs 0", "result": 0.937}, {"measurement": "IRS1.R.V Norm_5 Average", "setting": "level 5 vs 0", "result": 1.023}, {"measurement": "IRS2.R.C Norm_5 Average", "setting": "level 5 vs 0", "result": 0.992}, {"measurement": "JNK2.R.V Norm_5 Average", "setting": "level 5 vs 0", "result": 1.065}, {"measurement": "JNK_pT183_Y185.R.C Norm_5 Average", "setting": "level 5 vs 0", "result": 0.992}, {"measurement": "Jagged1.R.V Norm_5 Average", "setting": "level 5 vs 0", "result": 0.984}, {"measurement": "Jak2.R.V Norm_5 Average", "setting": "level 5 vs 0", "result": 1.003}, {"measurement": "KEAP1.R.V Norm_5 Average", "setting": "level 5 vs 0", "result": 0.955}, {"measurement": "LAD1.R.V Norm_5 Average", "setting": "level 5 vs 0", "result": 0.963}, {"measurement": "LC3A.B.R.C Norm_5 Average", "setting": "level 5 vs 0", "result": 1.012}, {"measurement": "LCN2.R.V Norm_5 Average", "setting": "level 5 vs 0", "result": 1.298}, {"measurement": "LDHA.R.C Norm_5 Average", "setting": "level 5 vs 0", "result": 1.102}, {"measurement": "LRP6_pS1490.R.V Norm_5 Average", "setting": "level 5 vs 0", "result": 1.046}, {"measurement": "Lasu1.R.V Norm_5 Average", "setting": "level 5 vs 0", "result": 0.972}, {"measurement": "Lck.R.V Norm_5 Average", "setting": "level 5 vs 0", "result": 1.010}, {"measurement": "Lyn.R.V Norm_5 Average", "setting": "level 5 vs 0", "result": 0.844}, {"measurement": "MAPK_pT202_Y204.R.C Norm_5 Average", "setting": "level 5 vs 0", "result": 0.869}, {"measurement": "MCT4.R.V Norm_5 Average", "setting": "level 5 vs 0", "result": 1.048}, {"measurement": "MDM2_pS166.R.V Norm_5 Average", "setting": "level 5 vs 0", "result": 1.023}, {"measurement": "MEK1.R.V Norm_5 Average", "setting": "level 5 vs 0", "result": 1.023}, {"measurement": "MEK1_pS217_S221.R.V Norm_5 Average", "setting": "level 5 vs 0", "result": 0.982}, {"measurement": "MERIT40.R.C Norm_5 Average", "setting": "level 5 vs 0", "result": 0.989}, {"measurement": "METTL3.R.V Norm_5 Average", "setting": "level 5 vs 0", "result": 0.986}, {"measurement": "MIF.R.C Norm_5 Average", "setting": "level 5 vs 0", "result": 0.948}, {"measurement": "MIG6.R.V Norm_5 Average", "setting": "level 5 vs 0", "result": 0.939}, {"measurement": "MITF.R.V Norm_5 Average", "setting": "level 5 vs 0", "result": 1.020}, {"measurement": "MLH1.M.V Norm_5 Average", "setting": "level 5 vs 0", "result": 0.926}, {"measurement": "MLKL.R.V Norm_5 Average", "setting": "level 5 vs 0", "result": 0.945}, {"measurement": "MMP2.R.V Norm_5 Average", "setting": "level 5 vs 0", "result": 0.946}, {"measurement": "MR1.M.C Norm_5 Average", "setting": "level 5 vs 0", "result": 0.994}, {"measurement": "MRAP.R.C Norm_5 Average", "setting": "level 5 vs 0", "result": 1.051}, {"measurement": "MSH2.R.C Norm_5 Average", "setting": "level 5 vs 0", "result": 0.954}, {"measurement": "MSH6.R.C Norm_5 Average", "setting": "level 5 vs 0", "result": 1.056}, {"measurement": "MSI2.R.C Norm_5 Average", "setting": "level 5 vs 0", "result": 1.081}, {"measurement": "MTCO1.M.V Norm_5 Average", "setting": "level 5 vs 0", "result": 1.081}, {"measurement": "MTSS1.M.C Norm_5 Average", "setting": "level 5 vs 0", "result": 0.950}, {"measurement": "Mcl.1.R.V Norm_5 Average", "setting": "level 5 vs 0", "result": 0.960}, {"measurement": "MelanA.R.C Norm_5 Average", "setting": "level 5 vs 0", "result": 1.007}, {"measurement": "Melanoma.gp100.R.C Norm_5 Average", "setting": "level 5 vs 0", "result": 1.060}, {"measurement": "Merlin.R.C Norm_5 Average", "setting": "level 5 vs 0", "result": 1.018}, {"measurement": "Midkine.R.V Norm_5 Average", "setting": "level 5 vs 0", "result": 0.932}, {"measurement": "Mitofusin.1.R.V Norm_5 Average", "setting": "level 5 vs 0", "result": 1.025}, {"measurement": "Mnk1.R.V Norm_5 Average", "setting": "level 5 vs 0", "result": 1.012}, {"measurement": "mTOR.R.V Norm_5 Average", "setting": "level 5 vs 0", "result": 1.033}, {"measurement": "mTOR_pS2448.R.C Norm_5 Average", "setting": "level 5 vs 0", "result": 1.080}, {"measurement": "HLA.DQA1.R.V Norm_5", "setting": "level 5 vs 0, replicates", "result": "0.839 and 1.026 and 0.858"}, {"measurement": "HLA.DR.DP.DQ.DX.R.C Norm_5", "setting": "level 5 vs 0, replicates", "result": "0.915 and 1.122 and 0.946"}, {"measurement": "HMHA1.R.V Norm_5", "setting": "level 5 vs 0, replicates", "result": "1.034 and 1.050 and 1.124"}, {"measurement": "HNRNPK.R.V Norm_5", "setting": "level 5 vs 0, replicates", "result": "0.924 and 0.922 and 0.995"}, {"measurement": "HSP27.M.C Norm_5", "setting": "level 5 vs 0, replicates", "result": "0.955 and 1.006 and 0.835"}, {"measurement": "HSP27_pS82.R.V Norm_5", "setting": "level 5 vs 0, replicates", "result": "0.966 and 0.991 and 1.118"}, {"measurement": "HSP60.R.V Norm_5", "setting": "level 5 vs 0, replicates", "result": "1.007 and 0.973"}, {"measurement": "HSP70.R.C Norm_5", "setting": "level 5 vs 0, replicates", "result": "1.007 and 1.047 and 1.051"}, {"measurement": "Hexokinase.I.R.C Norm_5", "setting": "level 5 vs 0, replicates", "result": "1.009 and 1.149"}, {"measurement": "Hexokinase.II.R.V Norm_5", "setting": "level 5 vs 0, replicates", "result": "1.156 and 1.123 and 1.110"}, {"measurement": "Hif.1αR.C Norm_5", "setting": "level 5 vs 0, replicates", "result": "1.356 and 1.081 and 1.170"}, {"measurement": "Histone.H3.R.V Norm_5", "setting": "level 5 vs 0, replicates", "result": "1.165 and 1.542 and 0.488"}, {"measurement": "Histone.H3_pS10.R.V Norm_5", "setting": "level 5 vs 0, replicates", "result": "0.733 and 1.032 and 0.592"}, {"measurement": "IDO.R.C Norm_5", "setting": "level 5 vs 0, replicates", "result": "1.121 and 0.959 and 0.966"}, {"measurement": "IGF1R_pY1135_Y1136.R.V Norm_5", "setting": "level 5 vs 0, replicates", "result": "0.933 and 1.035"}, {"measurement": "IGFBP2.R.V Norm_5", "setting": "level 5 vs 0, replicates", "result": "0.940 and 1.033 and 1.113"}, {"measurement": "IGFBP3.M.V Norm_5", "setting": "level 5 vs 0, replicates", "result": "0.833 and 0.934"}, {"measurement": "IGFRb.R.C Norm_5", "setting": "level 5 vs 0, replicates", "result": "1.063 and 1.065 and 1.126"}, {"measurement": "IL.6.R.C Norm_5", "setting": "level 5 vs 0, replicates", "result": "1.051 and 0.961 and 1.033"}, {"measurement": "IMP3.R.C Norm_5", "setting": "level 5 vs 0, replicates", "result": "0.861 and 0.973 and 1.018"}]}]}
